Experimental data published in patent US8450280B2, “Activation of peptide prodrugs by hK2” (GenbSpera, Inc., priority 1999, dated 2013).
Where two headings read alike, the source gives them in different places. Starred links: 1 amine or outer side, 2 acyl side, 3 side chain; linkers in the order of their positions; H or OH if unused. Non-standard residues stand in square brackets, D forms with d. Residues, ends and D or L forms follow the SMILES beside them. *: point of attachment. AMC = Cc1cc(=O)oc2cc(N*)ccc12; Tos = Cc1ccc(S(=O)(=O)*)cc1; Cbz = O=C(OCc1ccccc1)*; Boc = CC(C)(C)OC(=O)*; CO = O=C([*:1])[*:2]

Tests used:
Assay type in all cases: biochemical
hK2 [1] = target: T1, hK2 (Homo sapiens, UniProt P20151); test: Inhibition of hK2 by protease inhibitors (substrate H-Pro-Phe-Arg-AMC); details: for inhibition at 100 µM: inhibitor 100 μM (highest recommended working concentration), 90 μM peptide substrate
T1 construct: made in house
Experimental: Activity of hK2 (1.6 pmol) was monitored using the substrate H-Pro-Phe-Arg-AMC (SEQ ID NO: 55) (90 μM). Inhibitors, at commonly used concentrations, and hK2 (8.3 nM) were mixed and proteolysis of 90 μM H-Pro-Phe-Arg-AMC (SEQ ID NO: 55) was followed up to 20 minutes, starting directly or 10 minutes after mixing the enzyme with various inhibitors. Inhibition was evaluated by comparison with […] controls.
The proteolytic activity is expressed in percentage of inhibitor-free control after 10 minutes of incubation.
Therefore, PPACK can be used to obtain fast irreversible inhibition of hK2.

hK2 [2] = target: T1, hK2; test: Effect of heparin on hK2 activity (Km and kcat of substrate); details: heparin 10^−4 to 10^−7 M; data not shown
Text: The increase had no significant effect on the calculation of the constants.

hK2 [3] = target: T1, hK2; test: Kinetic constants of AMC substrate hydrolysis by hK2; parameters: key to Kcat: The entry “NR” means that no reaction was detected; details: for Kcat: 50 mM Tris pH 7.5, 0.1 M NaCl, 0.2% BSA, 37° C., Lineweaver-Burk, NR = no reaction detected; for Activity (%): hydrolytic activity of hK2 in relation to H-Pro-Phe-Arg-AMC: 100 μM substrate
Experimental: The measurements were done with Fluoroscan II (Labsystems, Helsinki, Finland) using a 355 nm excitation filter and a 460 nm emission filter. The fluorescence of 7-amino-4-methylcoumarin (AMC) (Sigma, St. Louis, Mo., USA) was determined to be 700 FIU/nmol and this value was used in the calculations of the rate of product formation. Unless otherwise indicated all final analyses were performed in 200 μl of the buffer 50 mM Tris pH 7.5, 0.1 M NaCl, and 0.2% BSA at 37° C. using 1.6 pmol hK2. BSA was added to the reaction mixture in order to minimize adsorption of the enzyme to the walls of the microtiter wells. The amount of hK2 was quantified by a commercial PSA immunoassay (Prostatus, Wallac, Turku, Finland) with the Mabs H1 17 and H50 which recognize PSA and hK2 equally well (Lovgren et al., Biochem. Biophys. Res. Co., 213, 888-895 (1995)). Under the conditions described, 1.6 pmol of the hK2 preparation cleaved 50 pmol/min of the 100 μM substrate Pro-Phe-Arg-AMC (SEQ ID NO: 55). During the 20 minute measurement time the consumption of the substrates is <7% of their total amount and was not considered to affect the reaction rate. Initial analysis of the substrates were performed with 3.2 pmol hK2 at a substrate concentration of 250 μM. Km value for the substrates cleaved by hK2 at these conditions were determined using at least four substrate concentrations ranging from 0.2×Km to 5×Km. The Km and kcat values were calculated from Lineweaver-Burk plots.
Substrates ending in either arginine or lysine were tested. […] However, no hydrolysis of Arg-Gln-Arg-Arg-AMC (SEQ ID NO: 63) was detected. […] As with the semenogelins, hK2 also here cleaves substrates with Arg at position P1 and preferentially a large residue or another Arg at position P2. None of the substrates with lysine in the C-terminal position were cleaved.
The activity listed in Table 1 is hydrolytic activity of hK2 with 100 μM substrate in relation to the hydrolytic activity of hK2 with 100 μM of the tissue kallikrein substrate H-Pro-Phe-Arg-AMC (SEQ ID NO: 55). The entry “NR” means that no reaction was detected.

hK2 [4] = target: T1, hK2; test: Kinetic analysis of hK2 inhibition by zinc; details: for Ki: two bound zinc ions model, best fit, substrates Pro-Phe-Arg-AMC and Ala-Arg-Arg-AMC, no BSA
Experimental: Since BSA contains several binding sites for Zn^2+, it could not be used in the kinetics buffer during zinc inhibition experiments. The binding of hK2 to the microtiter well walls caused a constant decrease in the reaction rate, which was however similar to all zinc concentrations. The velocities were calculated from a five-minute measurement time after mixing of the enzymes with the buffer containing substrate and zinc.
The inhibition of hK2 by zinc was first tested against competitive, uncompetitive, mixed, non-competitive, and partial non-competitive inhibitor models using commonly used formulas described for the respective inhibition models. […] The Dixon plots ([Zn^2+]/v) for the inhibition were not linear. However, at low zinc ion concentrations the inhibition pattern looked competitive. The inhibition mechanism is clearly more complex than the ones described by the formulas used. Further analysis of the inhibition mechanism was done by deriving the rate equations for various more complex mechanisms and analyzing the data by least-squares best-fit systems. The possible mechanism required two bound zinc ions, and is presented by Scheme 1.
[formula] where the concentration of free enzyme e is the total enzyme concentration divided by the sum of a) {(the zinc concentration divided by Ki1) times (the zinc concentration divided by Ki2)} and b) {(the zinc concentration divided by Ki1) plus 1} times {(the substrate concentration divided by Ks) plus 1}.
The equation fitted the experimental data quite satisfactorily. The constant values were Ki1=4.6+/−3.9 μM, Ki2=3.2+/−0.7 μM, and k=k′.

[5] = inhibitor 5 μM, 10 minutes of incubation, 8.3 nM hK2, 90 μM substrate
[6] = inhibitor 100 μM, 10 minutes of incubation, 8.3 nM hK2, 90 μM substrate, read-out: Activity (%) of hK2, percentage of inhibitor-free control

T1 sequence (P20151 25-261): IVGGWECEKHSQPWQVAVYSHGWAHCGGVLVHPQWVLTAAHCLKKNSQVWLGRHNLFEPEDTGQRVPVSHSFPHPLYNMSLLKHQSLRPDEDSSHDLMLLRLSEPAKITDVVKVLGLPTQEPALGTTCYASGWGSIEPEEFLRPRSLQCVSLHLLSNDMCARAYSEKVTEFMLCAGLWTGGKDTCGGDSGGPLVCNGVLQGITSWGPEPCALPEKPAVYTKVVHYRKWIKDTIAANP

NC(N)=NCCC[C@H](NC(=O)[C@@H]1CCCN1C(=O)[C@H](N)Cc1ccccc1)C(=O)CCl [PPACK]
inhibition of hK2 (in words) (hK2 [1]; 5 μM concentration, irreversible): inhibited hK2 rapidly | Activity (%) of hK2, percentage of inhibitor-free control (hK2 [1]; [5]): 0%

heparin
effect on Km of the substrate (hK2 [2]): slightly increased

CC(=O)N[C@@H](CC(C)C)C(=O)N[C@@H](CC(C)C)C(=O)N[C@H](C=O)CCCNC(=N)N [Leupeptin, leupeptin]
inhibition of hK2 (in words) (hK2 [1]; 8 nM hK2, 90 μM substrate): only weakly inhibited | inhibition at 100 µM (hK2 [1]): ~60% | remaining activity at 100 µM (hK2 [1]; [6]): 12%

Cc1ccc(S(=O)(=O)NCC(=O)N2CCC[C@H]2C(=O)N[C@@H](CCCNC(=N)N)C(=O)Nc2ccc3c(C)cc(=O)oc3c2)cc1 [Gly Pro Arg-AMC, Tos-Gly-Pro-Arg-AMC] (Tos-Gly-Pro-Arg-{AMC})
Kcat (hK2 [3]): NR

[Cl-].[Cl-].[Zn+2] [ZnCl2]
inhibition of hK2 (in words) (hK2 [1]; 8 nM hK2, 90 μM substrate): effectively inhibits hK2 | Activity (%) of hK2, percentage of inhibitor-free control (hK2 [1]; inhibitor 100 μM, 10 minutes of incubation, 8.3 nM hK2, 90 μM substrate): 10% | Activity (%) of hK2, percentage of inhibitor-free control (hK2 [1]; inhibitor 200 μM, 10 minutes of incubation, 8.3 nM hK2, 90 μM substrate): 1.2% | effect on Km and Vmax of hK2 (hK2 [4]): increased the Km and decreased the Vmax | reversal of hK2 inhibition by addition of EDTA (hK2 [4]): totally reversed | Ki (hK2 [4]; read-out: Ki1): 4.6 µM | Ki (hK2 [4]; read-out: Ki2): 3.2 µM

Cc1ccc(S(=O)(=O)NCC(=O)N2CCC[C@H]2C(=O)N[C@@H](CCCCN)C(=O)Nc2ccc3c(C)cc(=O)oc3c2)cc1 [Gly Pro Lys-AMC, Tos-Gly-Pro-Lys-AMC] (Tos-Gly-Pro-Lys-{AMC})
Kcat (hK2 [3]): NR

Cc1cc(=O)oc2cc(NC(=O)[C@H](CCCNC(=N)N)NC(=O)CNC(=O)[C@H](CCC(N)=O)NC(=O)OC(C)(C)C)ccc12 [Gln Gly Arg-AMC, Boc-Gln-Gly-Arg-AMC] (Boc-Gln-Gly-Arg-{AMC})
Kcat (hK2 [3]): NR

Cc1cc(=O)oc2cc(NC(=O)[C@H](CCCNC(=N)N)NC(=O)[C@H](CCCNC(=N)N)NC(=O)[C@H](C)NC(=O)OCc3ccccc3)ccc12 [Ala Arg Arg-AMC, Z-Ala-Arg-Arg-AMC] (Cbz-Ala-Arg-Arg-{AMC})
hydrolysis by hK2 (in words) (hK2 [3]): cleaved quite effectively | Activity (%): hydrolytic activity of hK2 in relation to H-Pro-Phe-Arg-AMC (hK2 [3]): 33%

Cc1cc(=O)oc2cc(NC(=O)[C@H](CCCNC(=N)N)NC(=O)[C@H](CCCNC(=N)N)NC(=O)[C@H](CCC(N)=O)NC(=O)[C@@H](N)CCCNC(=N)N)ccc12 [Arg Gln Arg Arg-AMC, H-Arg-Gln-Arg-Arg-AMC] (H-RQRR-{AMC})
hydrolysis by hK2 (in words) (hK2 [3]): no hydrolysis | Kcat (hK2 [3]): NR

Cc1cc(=O)oc2cc(NC(=O)[C@H](CCCNC(=N)N)NC(=O)[C@@H]3CCCN3C(=O)[C@@H](NC(=O)OC(C)(C)C)C(C)C)ccc12 [Val Pro Arg-AMC, boc-Val-Pro-Arg-AMC] (Boc-Val-Pro-Arg-{AMC})
hydrolysis by hK2 (in words) (hK2 [3]): with lower efficiency | Activity (%): hydrolytic activity of hK2 in relation to H-Pro-Phe-Arg-AMC (hK2 [3]): 6%

CC(C)[C@H](NC(=O)[C@H](CCCNC(=N)N)NC(=O)N[C@@H](Cc1ccccc1)C(=O)O)C(=O)N[C@H](C=O)CCCNC(=N)N [Antipain, antipain] ({Phe-CO}-Arg-Val-Arg-aldehyde)
inhibition at 100 µM (hK2 [1]): ~90% | remaining activity at 100 µM (hK2 [1]; [6]): 33% | remaining activity at 500 µM (hK2 [1]; inhibitor 500 μM, 10 minutes of incubation, 8.3 nM hK2, 90 μM substrate, read-out: Activity (%) of hK2, percentage of inhibitor-free control): 10%

PSTI: protease inhibitor present in the prostate (DSLGREAKCYNELNGCTKIYDPVCGTDGNTYPNECVLCFENRKRQTSILIQKSGPC)
inhibition of hK2 (in words) (hK2 [1]; 8 nM hK2, 90 μM substrate): inhibited hK2 weakly | Activity (%) of hK2, percentage of inhibitor-free control (hK2 [1]; inhibitor 0.08 μM, 10 minutes of incubation, 8.3 nM hK2, 90 μM substrate): 100% | Activity (%) of hK2, percentage of inhibitor-free control (hK2 [1]; inhibitor 4 μM, 10 minutes of incubation, 8.3 nM hK2, 90 μM substrate): 89%

Cc1cc(=O)oc2cc(NC(=O)[C@H](CCCNC(=N)N)NC(=O)[C@@H](NC(=O)[C@@H](NC(=O)OCc3ccccc3)C(C)C)C(C)C)ccc12 [Val Val Arg-AMC, Z-Val-Val-Arg-AMC] (Cbz-Val-Val-Arg-{AMC})
Kcat (hK2 [3]): NR

Cc1cc(=O)oc2cc(NC(=O)[C@H](CCCNC(=N)N)NC(=O)[C@H](CO)NC(=O)[C@H](Cc3ccccc3)NC(=O)OC(C)(C)C)ccc12 [Phe Ser Arg-AMC, Boc-Phe-Ser-Arg-AMC] (Boc-Phe-Ser-Arg-{AMC})
Kcat (hK2 [3]): NR

Cc1cc(=O)oc2cc(NC(=O)[C@H](CCCNC(=N)N)NC(=O)[C@H](Cc3ccccc3)NC(=O)[C@@H]3CCCN3)ccc12 [Pro Phe Arg-AMC, H-Pro-Phe-Arg-AMC] (H-Pro-Phe-Arg-{AMC})
hydrolysis by hK2 (in words) (hK2 [3]): best substrate | rate of substrate cleavage by hK2 preparation (hK2 [3]; 1.6 pmol hK2, 100 μM substrate, pH 7.5, 37° C.): 50 pmol/min | Activity (%): hydrolytic activity of hK2 in relation to H-Pro-Phe-Arg-AMC (hK2 [3]): 100%

Cc1cc(=O)oc2cc(NC(=O)[C@H](CCCCN)NC(=O)[C@H](CC(C)C)NC(=O)[C@H](N)C(C)C)ccc12 [Val Leu Lys-AMC, H-D-Val-Leu-Lys-AMC] (H-[dV]-Leu-Lys-{AMC})
Kcat (hK2 [3]): NR

Cl.N=C(N)c1ccccc1 [Benzamidine, Benzamidine hydrochloride]
concentration required for efficient inhibition of hK2 (hK2 [1]): above 20 mM | remaining activity at 5000 µM (hK2 [1]; inhibitor 5000 μM, 10 minutes of incubation, 8.3 nM hK2, 90 μM substrate, read-out: Activity (%) of hK2, percentage of inhibitor-free control): 27% | remaining activity at 20000 µM (hK2 [1]; inhibitor 20,000 μM, 10 minutes of incubation, 8.3 nM hK2, 90 μM substrate, read-out: Activity (%) of hK2, percentage of inhibitor-free control): 8%

Aprotinin
inhibition of hK2 (in words) (hK2 [1]; 8 nM hK2, 90 μM substrate): not to be good hK2 inhibitor | Activity (%) of hK2, percentage of inhibitor-free control (hK2 [1]; [5]): 10% | Activity (%) of hK2, percentage of inhibitor-free control (hK2 [1]; inhibitor 30 μM, 10 minutes of incubation, 8.3 nM hK2, 90 μM substrate): 33%

Cc1cc(=O)oc2cc(NC(=O)[C@H](CCCNC(=N)N)NC(=O)[C@H](CC(C)C)NC(=O)[C@H](CC(C)C)NC(=O)OCc3ccccc3)ccc12 [Leu Leu Arg-AMC, Z-Leu-Leu-Arg-AMC]
hydrolysis by hK2 (in words) (hK2 [3]): with lower efficiency | Activity (%): hydrolytic activity of hK2 in relation to H-Pro-Phe-Arg-AMC (hK2 [3]): 7%
